Laboratory results published in PubChem BioAssay AID1788 (Vanderbilt High Throughput Screening Facility, 2009).
Calls of active or inactive are those of the source. How the calls were made is not given here.

Tests used:
Adrenergic a1D (human) = experiment: PubChem AID 1788; conditions: MDS Pharma lead profiling panel, radioligand binding, at 10 µM, active compounds read high
[1] = biological target: Muscarinic acetylcholine receptor M3 (Homo sapiens) (UniProt P20309); experiment: PubChem AID 1788; conditions: MDS Pharma lead profiling panel, radioligand binding, at 10 µM, active compounds read high
[2] = biological target: Neuropeptide Y receptor type 1 (Homo sapiens) (UniProt P25929); experiment: PubChem AID 1788; conditions: MDS Pharma lead profiling panel, radioligand binding; Neuropeptide Y Y1 (human); at 10 µM; active compounds read high
Chain of Neuropeptide Y receptor type 1 (Homo sapiens) (P25929 whole entry, looked up): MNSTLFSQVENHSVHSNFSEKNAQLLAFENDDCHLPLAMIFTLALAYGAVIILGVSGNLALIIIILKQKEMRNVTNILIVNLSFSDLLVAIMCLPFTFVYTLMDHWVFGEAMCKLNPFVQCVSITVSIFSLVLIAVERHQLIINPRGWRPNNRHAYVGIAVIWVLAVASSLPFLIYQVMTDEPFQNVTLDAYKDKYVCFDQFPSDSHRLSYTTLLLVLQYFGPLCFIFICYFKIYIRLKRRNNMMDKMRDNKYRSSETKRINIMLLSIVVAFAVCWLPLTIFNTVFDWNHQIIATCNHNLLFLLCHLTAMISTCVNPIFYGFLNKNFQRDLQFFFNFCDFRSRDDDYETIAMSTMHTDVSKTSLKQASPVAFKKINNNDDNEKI

Adenosine A3 (human) = experiment: PubChem AID 1788; conditions: MDS Pharma lead profiling panel, radioligand binding, at 10 µM, active compounds read high
[3] = biological target: 5-hydroxytryptamine receptor 1A (Homo sapiens) (UniProt P08908); experiment: PubChem AID 1788; conditions: MDS Pharma lead profiling panel, radioligand binding; Serotonin (5-Hydroxytryptamine) 5-HT1A (human); at 10 µM; active compounds read high
Chain of 5-hydroxytryptamine receptor 1A (Homo sapiens) (P08908 whole entry, looked up): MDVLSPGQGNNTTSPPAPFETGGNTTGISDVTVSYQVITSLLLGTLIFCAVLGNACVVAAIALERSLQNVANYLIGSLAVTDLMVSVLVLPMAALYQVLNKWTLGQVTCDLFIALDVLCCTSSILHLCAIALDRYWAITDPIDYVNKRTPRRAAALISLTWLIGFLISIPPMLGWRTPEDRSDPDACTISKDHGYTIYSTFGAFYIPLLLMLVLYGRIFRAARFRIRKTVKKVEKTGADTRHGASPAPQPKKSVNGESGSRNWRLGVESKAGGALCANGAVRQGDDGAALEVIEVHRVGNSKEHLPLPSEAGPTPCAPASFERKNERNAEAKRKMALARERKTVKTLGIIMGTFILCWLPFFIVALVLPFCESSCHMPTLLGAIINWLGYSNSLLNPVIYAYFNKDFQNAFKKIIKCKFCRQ

Glutamate Kainate (rat) = experiment: PubChem AID 1788; conditions: MDS Pharma lead profiling panel, radioligand binding, at 10 µM, active compounds read high
Purinergic P2Y (rat) = experiment: PubChem AID 1788; conditions: MDS Pharma lead profiling panel, radioligand binding, at 10 µM, active compounds read high
[4] = system: Epidermal Growth Factor (EGF) (human); experiment: PubChem AID 1788; conditions: MDS Pharma lead profiling panel, radioligand binding, at 10 µM, active compounds read high
[5] = system: G protein-coupled receptor GPR103 (human); experiment: PubChem AID 1788; conditions: MDS Pharma lead profiling panel, radioligand binding, at 10 µM, active compounds read high
PubChem AID 1788 = conditions: MDS Pharma lead profiling panel, radioligand binding; GABAA central (rat), Muscimol site; at 10 µM; active compounds read high
Adrenergic a1A (rat) = experiment: PubChem AID 1788; conditions: MDS Pharma lead profiling panel, radioligand binding, at 10 µM, active compounds read high
[6] = system: Leukotriene Cysteinyl CysLT1 (human); experiment: PubChem AID 1788; conditions: MDS Pharma lead profiling panel, radioligand binding, at 10 µM, active compounds read high
[7] = biological target: Estrogen receptor (Homo sapiens) (UniProt P03372); experiment: PubChem AID 1788; conditions: MDS Pharma lead profiling panel, radioligand binding; Estrogen ER a (human); at 10 µM; active compounds read high
Chain of Estrogen receptor (Homo sapiens) (P03372 whole entry, looked up): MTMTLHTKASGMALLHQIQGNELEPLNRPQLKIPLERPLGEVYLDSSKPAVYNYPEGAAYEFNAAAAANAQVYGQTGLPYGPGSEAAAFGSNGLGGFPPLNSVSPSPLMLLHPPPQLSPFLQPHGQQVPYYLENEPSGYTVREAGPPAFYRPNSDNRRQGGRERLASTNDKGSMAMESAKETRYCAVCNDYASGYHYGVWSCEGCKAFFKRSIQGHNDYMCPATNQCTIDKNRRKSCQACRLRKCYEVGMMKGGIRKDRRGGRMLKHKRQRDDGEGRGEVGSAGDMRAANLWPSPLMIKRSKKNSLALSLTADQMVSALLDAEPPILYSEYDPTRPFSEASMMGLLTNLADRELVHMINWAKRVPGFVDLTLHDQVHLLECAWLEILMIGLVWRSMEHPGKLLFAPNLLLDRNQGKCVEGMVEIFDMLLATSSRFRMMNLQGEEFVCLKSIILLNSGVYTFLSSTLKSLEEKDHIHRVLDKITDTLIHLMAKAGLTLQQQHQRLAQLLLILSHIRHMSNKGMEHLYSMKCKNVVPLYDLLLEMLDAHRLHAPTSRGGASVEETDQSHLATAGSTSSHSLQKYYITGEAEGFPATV

Histamine H1 (human) = experiment: PubChem AID 1788; conditions: MDS Pharma lead profiling panel, radioligand binding, at 10 µM, active compounds read high
[8] = biological target: Alpha-2A adrenergic receptor (Homo sapiens) (UniProt P08913); experiment: PubChem AID 1788; conditions: MDS Pharma lead profiling panel, radioligand binding; Adrenergic a2A (human); at 10 µM; active compounds read high
Chain of Alpha-2A adrenergic receptor (Homo sapiens) (P08913 whole entry, looked up): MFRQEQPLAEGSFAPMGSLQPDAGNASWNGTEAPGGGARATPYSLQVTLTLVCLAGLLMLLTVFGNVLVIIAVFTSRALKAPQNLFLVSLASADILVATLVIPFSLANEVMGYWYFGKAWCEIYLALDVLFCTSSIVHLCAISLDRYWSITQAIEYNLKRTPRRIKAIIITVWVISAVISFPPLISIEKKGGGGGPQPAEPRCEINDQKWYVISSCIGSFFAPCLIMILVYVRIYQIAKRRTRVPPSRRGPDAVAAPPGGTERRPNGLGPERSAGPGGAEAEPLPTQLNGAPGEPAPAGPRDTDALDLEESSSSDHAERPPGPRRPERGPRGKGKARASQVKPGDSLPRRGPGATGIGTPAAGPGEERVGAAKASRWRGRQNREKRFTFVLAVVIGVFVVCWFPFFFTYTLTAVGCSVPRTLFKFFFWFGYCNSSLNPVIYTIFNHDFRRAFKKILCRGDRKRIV

[9] = biological target: Glucocorticoid receptor (Homo sapiens) (UniProt P04150); experiment: PubChem AID 1788; conditions: MDS Pharma lead profiling panel, radioligand binding, at 10 µM, active compounds read high
Chain of Glucocorticoid receptor (Homo sapiens) (P04150 whole entry, looked up): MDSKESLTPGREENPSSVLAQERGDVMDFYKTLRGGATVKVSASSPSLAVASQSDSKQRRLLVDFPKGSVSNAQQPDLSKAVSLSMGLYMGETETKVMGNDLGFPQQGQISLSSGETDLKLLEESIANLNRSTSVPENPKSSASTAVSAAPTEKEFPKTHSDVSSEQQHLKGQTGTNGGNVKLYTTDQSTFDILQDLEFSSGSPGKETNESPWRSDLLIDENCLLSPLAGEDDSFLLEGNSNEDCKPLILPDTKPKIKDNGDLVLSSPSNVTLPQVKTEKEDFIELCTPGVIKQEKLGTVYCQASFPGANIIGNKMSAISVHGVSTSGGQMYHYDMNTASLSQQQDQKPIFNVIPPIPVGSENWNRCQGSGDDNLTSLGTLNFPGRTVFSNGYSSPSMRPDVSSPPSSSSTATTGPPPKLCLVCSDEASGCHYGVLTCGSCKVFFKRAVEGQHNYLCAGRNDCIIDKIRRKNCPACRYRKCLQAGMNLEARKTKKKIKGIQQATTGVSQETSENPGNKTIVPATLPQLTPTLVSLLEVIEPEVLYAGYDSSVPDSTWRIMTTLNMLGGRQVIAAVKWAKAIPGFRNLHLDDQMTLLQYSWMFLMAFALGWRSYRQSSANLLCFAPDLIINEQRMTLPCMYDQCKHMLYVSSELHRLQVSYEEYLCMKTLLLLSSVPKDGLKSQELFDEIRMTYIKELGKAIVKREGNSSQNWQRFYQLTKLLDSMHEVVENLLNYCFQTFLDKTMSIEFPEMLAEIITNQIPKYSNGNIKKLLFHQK

[10] = biological target: Voltage-gated inwardly rectifying potassium channel KCNH2 (Homo sapiens) (UniProt Q12809); experiment: PubChem AID 1788; conditions: MDS Pharma lead profiling panel, radioligand binding; Potassium Channel hERG (human); at 10 µM; active compounds read high
Bradykinin B1 (human) = experiment: PubChem AID 1788; conditions: MDS Pharma lead profiling panel, radioligand binding, at 10 µM, active compounds read high
[11] = biological target: Beta-2 adrenergic receptor (Homo sapiens) (UniProt P07550); experiment: PubChem AID 1788; conditions: MDS Pharma lead profiling panel, radioligand binding; Adrenergic b2 (human); at 10 µM; active compounds read high
Chain of Beta-2 adrenergic receptor (Homo sapiens) (P07550 whole entry, looked up): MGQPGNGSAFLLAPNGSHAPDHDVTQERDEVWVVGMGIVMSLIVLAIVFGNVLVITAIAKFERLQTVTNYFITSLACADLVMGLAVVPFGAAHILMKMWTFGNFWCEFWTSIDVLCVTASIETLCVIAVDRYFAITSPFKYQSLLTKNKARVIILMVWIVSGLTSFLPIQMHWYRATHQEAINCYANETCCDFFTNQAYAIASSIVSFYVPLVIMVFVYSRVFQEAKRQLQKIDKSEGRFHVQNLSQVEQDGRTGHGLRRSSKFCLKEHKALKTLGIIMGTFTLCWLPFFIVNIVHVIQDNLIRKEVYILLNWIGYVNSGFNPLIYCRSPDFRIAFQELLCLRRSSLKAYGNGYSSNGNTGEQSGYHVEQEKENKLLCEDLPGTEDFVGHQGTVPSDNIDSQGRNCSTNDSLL

[12] = system: Transporter, Dopamine (DAT) (human); experiment: PubChem AID 1788; conditions: MDS Pharma lead profiling panel, radioligand binding, at 10 µM, active compounds read high
[13] = system: Imidazoline I2 central (rat); experiment: PubChem AID 1788; conditions: MDS Pharma lead profiling panel, radioligand binding, at 10 µM, active compounds read high
[14] = biological target: Delta-type opioid receptor (Homo sapiens) (UniProt P41143); experiment: PubChem AID 1788; conditions: MDS Pharma lead profiling panel, radioligand binding; Opiate d (OP1, DOP) (human); at 10 µM; active compounds read high
Chain of Delta-type opioid receptor (Homo sapiens) (P41143 whole entry, looked up): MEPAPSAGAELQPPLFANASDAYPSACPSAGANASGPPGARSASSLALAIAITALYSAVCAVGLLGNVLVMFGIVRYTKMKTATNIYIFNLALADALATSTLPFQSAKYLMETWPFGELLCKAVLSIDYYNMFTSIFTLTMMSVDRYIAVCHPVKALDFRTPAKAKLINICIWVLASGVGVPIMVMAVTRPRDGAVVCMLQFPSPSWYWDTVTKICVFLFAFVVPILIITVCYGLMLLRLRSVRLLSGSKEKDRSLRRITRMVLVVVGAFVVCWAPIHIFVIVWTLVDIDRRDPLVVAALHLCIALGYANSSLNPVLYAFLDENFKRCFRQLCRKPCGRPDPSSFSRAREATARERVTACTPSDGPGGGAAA

GABA B1A (human) = experiment: PubChem AID 1788; conditions: MDS Pharma lead profiling panel, radioligand binding, at 10 µM, active compounds read high
Adrenergic b1 (human) = experiment: PubChem AID 1788; conditions: MDS Pharma lead profiling panel, radioligand binding, at 10 µM, active compounds read high
[15] = biological target: D(2) dopamine receptor (Homo sapiens) (UniProt P14416); experiment: PubChem AID 1788; conditions: MDS Pharma lead profiling panel, radioligand binding; Dopamine D2S (human); at 10 µM; active compounds read high
Chain of D(2) dopamine receptor (Homo sapiens) (P14416 whole entry, looked up): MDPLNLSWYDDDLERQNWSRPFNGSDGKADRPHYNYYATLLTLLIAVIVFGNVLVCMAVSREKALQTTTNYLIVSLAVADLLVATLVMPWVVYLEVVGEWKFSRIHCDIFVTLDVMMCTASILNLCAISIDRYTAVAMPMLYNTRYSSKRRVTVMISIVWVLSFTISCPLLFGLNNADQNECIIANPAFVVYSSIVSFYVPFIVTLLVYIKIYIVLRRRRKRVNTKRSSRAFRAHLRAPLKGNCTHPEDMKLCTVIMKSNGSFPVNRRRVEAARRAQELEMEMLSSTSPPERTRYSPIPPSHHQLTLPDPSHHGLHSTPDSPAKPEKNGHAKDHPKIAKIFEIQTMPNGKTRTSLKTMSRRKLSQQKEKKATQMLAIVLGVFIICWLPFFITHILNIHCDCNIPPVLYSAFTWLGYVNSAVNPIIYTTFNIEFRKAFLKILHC

Prostanoid EP4 (human) = experiment: PubChem AID 1788; conditions: MDS Pharma lead profiling panel, radioligand binding, at 10 µM, active compounds read high
Interleukin IL-1 (mouse) = experiment: PubChem AID 1788; conditions: MDS Pharma lead profiling panel, radioligand binding, at 10 µM, active compounds read high
Adenosine A2 (human) = experiment: PubChem AID 1788; conditions: MDS Pharma lead profiling panel, radioligand binding, at 10 µM, active compounds read high
[16] = system: Androgen (testosterone) AR (rat); experiment: PubChem AID 1788; conditions: MDS Pharma lead profiling panel, radioligand binding, at 10 µM, active compounds read high
Tachykinin NK1 (human) = experiment: PubChem AID 1788; conditions: MDS Pharma lead profiling panel, radioligand binding, at 10 µM, active compounds read high
[17] = biological target: Muscarinic acetylcholine receptor M1 (Homo sapiens) (UniProt P11229); experiment: PubChem AID 1788; conditions: MDS Pharma lead profiling panel, radioligand binding, at 10 µM, active compounds read high
Chain of Muscarinic acetylcholine receptor M1 (Homo sapiens) (P11229 whole entry, looked up): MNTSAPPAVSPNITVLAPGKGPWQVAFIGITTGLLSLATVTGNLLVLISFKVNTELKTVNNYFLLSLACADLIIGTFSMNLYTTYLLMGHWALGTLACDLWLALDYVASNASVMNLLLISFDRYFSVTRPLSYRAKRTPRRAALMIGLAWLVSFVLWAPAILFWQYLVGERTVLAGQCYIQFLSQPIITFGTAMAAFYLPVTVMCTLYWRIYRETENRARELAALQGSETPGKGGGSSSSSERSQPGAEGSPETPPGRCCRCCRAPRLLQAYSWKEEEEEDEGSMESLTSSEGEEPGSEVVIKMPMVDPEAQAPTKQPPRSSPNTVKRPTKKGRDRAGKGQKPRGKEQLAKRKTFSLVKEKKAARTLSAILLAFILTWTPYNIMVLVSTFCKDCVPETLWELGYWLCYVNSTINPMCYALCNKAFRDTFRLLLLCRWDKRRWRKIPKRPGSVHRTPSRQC

[18] = biological target: Muscarinic acetylcholine receptor M2 (Homo sapiens) (UniProt P08172); experiment: PubChem AID 1788; conditions: MDS Pharma lead profiling panel, radioligand binding, at 10 µM, active compounds read high
Chain of Muscarinic acetylcholine receptor M2 (Homo sapiens) (P08172 whole entry, looked up): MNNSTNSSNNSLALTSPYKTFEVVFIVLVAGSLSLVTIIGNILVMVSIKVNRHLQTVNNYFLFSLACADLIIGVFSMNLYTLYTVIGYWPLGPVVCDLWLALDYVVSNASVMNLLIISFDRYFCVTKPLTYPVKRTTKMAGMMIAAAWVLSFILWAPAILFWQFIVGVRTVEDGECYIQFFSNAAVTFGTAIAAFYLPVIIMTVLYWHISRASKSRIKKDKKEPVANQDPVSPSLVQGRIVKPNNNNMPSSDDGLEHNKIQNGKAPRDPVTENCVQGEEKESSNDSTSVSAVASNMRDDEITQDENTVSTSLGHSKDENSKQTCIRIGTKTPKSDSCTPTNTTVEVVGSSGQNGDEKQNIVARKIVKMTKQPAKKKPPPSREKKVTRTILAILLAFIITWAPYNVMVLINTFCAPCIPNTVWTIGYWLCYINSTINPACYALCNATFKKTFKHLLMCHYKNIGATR

Endothelin ETA (human) = experiment: PubChem AID 1788; conditions: MDS Pharma lead profiling panel, radioligand binding, at 10 µM, active compounds read high

In the case of CCOC(=O)N1CCC(NCCNC(=O)c2ccccc2C)CC1, the inhibition (Adrenergic a1D (human)) is reported as 28% (inactive), the inhibition [1] is reported as -14% (inactive) and the inhibition [2] is reported as 0% (inactive). The inhibition (Adenosine A3 (human)) was 7% (inactive), the inhibition [3] was 25% (inactive) and the inhibition (Glutamate Kainate (rat)) was 9% (inactive). For the same molecule, the inhibition (Purinergic P2Y (rat)) was -2% (inactive), the inhibition [4] was -3% (inactive) and the inhibition [5] was 9% (inactive). For the same molecule, the inhibition (PubChem AID 1788) was 7% (inactive), the inhibition (Adrenergic a1A (rat)) was 53% and the inhibition [6] was 5% (inactive). For the same molecule, the inhibition [7] was 5% (inactive), the inhibition (Histamine H1 (human)) was -4% (inactive) and the inhibition [8] was 22% (inactive). The inhibition [9] was -8% (inactive), the inhibition [10] was 1% (inactive) and the inhibition (Bradykinin B1 (human)) was 8% (inactive). For the same molecule, the inhibition [11] was -1% (inactive), the inhibition [12] was -1% (inactive) and the inhibition [13] was 19% (inactive). The inhibition [14] was -7% (inactive), the inhibition (GABA B1A (human)) was -22% (inactive) and the inhibition (Adrenergic b1 (human)) was 4% (inactive). For the same molecule, the inhibition [15] was 29% (inactive), the inhibition (Prostanoid EP4 (human)) was 3% (inactive) and the inhibition (Interleukin IL-1 (mouse)) was -1% (inactive). The inhibition (Adenosine A2 (human)) was 7% (inactive), the inhibition [16] was -2% (inactive) and the inhibition (Tachykinin NK1 (human)) was -8% (inactive). For the same molecule, the inhibition [17] was 19% (inactive), the inhibition [18] was 1% (inactive) and the inhibition (Endothelin ETA (human)) was 8% (inactive).
